Target: T1, MIF (Homo sapiens, UniProt P14174)
T1 sequence (P14174 2-115 limits assumed): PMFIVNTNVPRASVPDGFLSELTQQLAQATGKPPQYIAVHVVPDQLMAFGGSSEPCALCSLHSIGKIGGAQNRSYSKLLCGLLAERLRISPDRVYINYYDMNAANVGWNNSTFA
Assay: Competitive fluorescence polarization (FP) assay with tracer ligand B
Format: binding
Conditions: MIF Inhibition by Compounds of formula (Ia); Kd calculated from the IC50 of the competitive FP assay, fluorescent ligand B as tracer
Experimental: Determination of the affinities for A and B by FP assay. Determination of Kd values for the tracers followed previously reported protocols for other proteins. Experiments are carried out by quadruplicates in three independent experiments. In a flat black bottom 96 well plate (Corning), add to the third column 300 μL of 1.8 μM MIF in FP buffer (20 mM HEPES, 150 mM NaCl, 0.01% Tween-20, pH 7.4). From this column, using a multichannel pipette make serial dilutions (1:2) into the following wells to a total volume of 150 μL. First column contains 200 μL buffer and is used as a blank, while second column contains 150 μL buffer. 2 μL of DMSO are added to each well to keep 1% of DMSO, followed by the addition of 16.7 nM ligand A or B (48 μL) except first column (blank). Fluorescence polarization is measured at λexc=485±20 nm, λem=535±25 nm using an Infinite F500 plate reader until no FP variation was observed (typically 1 h). From the lowest and highest FP values (tracer free and tracer fully bound to MIF) we calculated the fraction of ligand bound to the protein to ligand total (Lb/Lt) for each concentration of MIF.
Competitive FP assay. In order to calculate the Kd values of the unlabeled compounds, competitive assays were carried out in quadruplicates in three independent experiments. In a flatblack bottom 96 well plate (Corning) 140 μL of FP buffer are added to columns 3-12. First column contains 200 μL buffer (blank), while second column contains 150 μL FP buffer. 10 μL of 1.1 μM MIF are added to columns 3-12 followed by the addition of 2 μL of inhibitor in DMSO at 9 different concentrations. 2 μL of DMSO are added to columns 1-3. After 20 min of incubation at rt 48 μL of 16.7 nM ligand B are added to columns 2-12 and fluorescencepolarization was measured at λexc=485±20 nm, λem=535±25 nm for 1 h. Data are analyzed by a least-squares non-linear fit, generated using Prism 6 in order to determine the compound's IC50. Kd values for each inhibitor are calculated using the following equation based on the IC50, Kd of the tracer (K^t), total (Lt) and bound (Lb) tracer, as well as total MIF concentration (Pt). Samples of 4-IPP and Pontamine Sky Blue were purchased both from Tocris and Santa Cruz Biotechnology.

Row | Kd [nM] | Compound
1 | 12 ± 1 | O=C1Oc2cc(O)ccc2CN1c1ccc(OCCN2CCOCC2)cc1 [Compound C8, 7-Hydroxy-3-(4-(2-morpholinoethoxy)phenyl)-3,4-dihydro-2H-benzo[e][1,3]oxazin-2-one]
2 | 53 ± 7 | O=C1Oc2cc(O)ccc2CN1c1ccc(OCCOCCOc2cccc(N3CCOCC3)c2)cc1 [Compound C9]
3 | 16 ± 1 | O=C1Oc2cc(O)ccc2CN1c1ccc(OCCOCCN2CCOc3ccccc32)cc1 [Compound C10, 3-(4-(2-(2-(2,3-Dihydro-4H-benzo[b][1,4]oxazin-4-yl)ethoxy)ethoxy)phenyl)-7-hydroxy-3,4-dihydro-2H-benzo[e][1,3]oxazin-2-one]

More lines, now with the values behind:

Row | Compound | Kd [nM]
4 | COCCOc1ccc(N2Cc3ccc(O)cc3OC2=O)cc1 [Compound C1] | 6 ± 1
5 | COCCOCCOc1ccc(N2Cc3ccc(O)cc3OC2=O)cc1 [Compound C2] | 16 ± 5
6 | O=C1Oc2cc(O)ccc2CN1c1ccc(OCCOCCN2CCOCC2)cc1 [Compound C3, 7-Hydroxy-3-(4-(2-(2-morpholinoethoxy)ethoxy)phenyl)-3,4-dihydro-2H-benzo[e][1,3]oxazin-2-one] | 23 ± 13
7 | O=C(O)CCCOc1ccc(N2Cc3ccc(O)cc3OC2=O)cc1 [Compound C4] | 22 ± 8
8 | O=C1Oc2cc(O)ccc2CN1c1ccc(C23CC4CC(CC(C4)C2)C3)cc1 [Compound C6] | 828 ± 44
9 | O=C1Oc2cc(O)ccc2CN1c1ccc(OCCOCCOCCN2CCOCC2)cc1 [Compound C7] | 23 ± 6
